# Earlier results as cited in patent EP4115885A1 (Charité - Universitätsmedizin Berlin, priority 2021, dated 2023).
# Experiments:
# [1] = human, in vivo
compound,measurement,setting,value
"C[C@@H]1CN(Cc2ccc(F)cc2)CCN1C(=O)COc1ccc(Cl)cc1NC(N)=O [BAY 86-5277, N-[5-chloro-2-[2-[(2R)-4-[(4-fluorophenyl)methyl]-2-methyl-1-piperazinyl]-2-oxoethoxy]phenyl]-urea]",effect of blockade of CCR1,model of sepsis,beneficial
same,tolerability,[1],generally well tolerated
